Data published in patent US5891869A, “Basic oxazoline-amide derivatives of GE2270 and GE2270-like antibiotics” (Biosearch Italia, S.p.A., priority 1995, dated 1999).

Columns and labels:
Assay in all cases: MIC by microbroth dilution
Strept. pneumoniae L44 = assay type: cell-based, Streptococcus pneumoniae; settings: 0,01% BSA, 10^4 CFU/ml, 18-24 h, Todd Hewitt broth
Protocol: (§1) The minimal inhibitory concentration (MIC) has been determined by microbroth dilution methodology, in the presence of 0,01% (w/v) of bovine serum albumin (BSA). BSA is added to the diluent to avoid possible adherence of the compounds of the invention to the plastic surface of the microtiter wells, as disclosed also by B. Goldstein et al., Antimicrobial Agents and Chemotherapy, 37 (1993), 741-745.
(§2) Inocula were 10^4 CFU/ml, except for Propionibacterium acnes and Bacteroides fragilis (10^5 CFU/ml) MICs were read after 18-24 h, except for Haemophilus influenzae, P. acnes, B. fragilis (48 h).
(§3) All microorganisms were incubated at 37° C.; H. influenzae in a 5% CO2 atmosphere, anaerobes in a N2 --CO2 --H2 (80:10:10) mixture; other organisms in air.
(§4) The growth media are: Oxoid Iso-Sensitest broth for staphylococci and Enterococcus faecalis); Difco Todd Hewitt broth for streptococci; Difco brain heart infusion broth+1% Difco Supplement C. for H. influenzae; Difco Wilkins-Chalgren broth for anaerobes.

Strept. agalactiae L310 = assay type: cell-based, Streptococcus agalactiae; settings: 0,01% BSA, 10^4 CFU/ml, 18-24 h, Todd Hewitt broth
Protocol: as §1, §2, §3, §4

Strept. sanguis L1721 = assay type: cell-based, Streptococcus sanguis; settings: 0,01% BSA, 10^4 CFU/ml, 18-24 h, Todd Hewitt broth
Protocol: as §1, §2, §3, §4

[1] = test system: Streptococcus pyogenes L49; assay type: cell-based; settings: 0,01% BSA, 10^4 CFU/ml, 18-24 h, Todd Hewitt broth
Protocol: as §1, §2, §3, §4

[2] = test system: Staphylococcus aureus L165; assay type: cell-based; settings: 0,01% BSA, inoculum 10^4 CFU/ml, read after 18-24 h, Iso-Sensitest broth
Protocol: as §1, §2, §3, §4

[3] = test system: Haemoph. influenzae ATCC 19418 L970; assay type: cell-based, Haemophilus influenzae; settings: 0,01% BSA, 10^4 CFU/ml, 48 h, 5% CO2, brain heart infusion broth+1% Supplement C
Protocol: as §1, §2, §3, §4

[4] = test system: Propionibact. acnes ATCC 6919 L1014; assay type: cell-based, Propionibacterium acnes; settings: 0,01% BSA, 10^5 CFU/ml, 48 h, anaerobic, Wilkins-Chalgren broth
Protocol: as §1, §2, §3, §4

[5] = test system: Bacteroides fragilis ATCC 25285 L1011; assay type: cell-based; settings: 0,01% BSA, 10^5 CFU/ml, 48 h, anaerobic, Wilkins-Chalgren broth
Protocol: as §1, §2, §3, §4

Staph. haemolyticus L602 = assay type: cell-based, Staphylococcus haemolyticus; settings: 0,01% BSA, 10^4 CFU/ml, 18-24 h, Iso-Sensitest broth
Protocol: as §1, §2, §3, §4

[6] = test system: Staph. epidermidis ATCC 12228 L147; assay type: cell-based, Staphylococcus epidermidis; settings: 0,01% BSA, 10^4 CFU/ml, 18-24 h, Iso-Sensitest broth
Protocol: as §1, §2, §3, §4

Row | Compound | MIC of the compounds (Strept. pneumoniae L44) [µg/mL] | MIC of the compounds (Strept. agalactiae L310) [µg/mL] | MIC of the compounds (Strept. sanguis L1721) [µg/mL] | MIC of the compounds [1] [µg/mL] | MIC of the compounds [2] [µg/mL] | MIC of the compounds [3] [µg/mL] | MIC of the compounds [4] [µg/mL] | MIC of the compounds [5] [µg/mL] | MIC of the compounds (Staph. haemolyticus L602) [µg/mL] | MIC of the compounds [6] [µg/mL]
1 | CCN1CCCC1CNC(=O)C1COC(c2csc(-c3ccc4c(n3)-c3csc(n3)-c3csc(n3)C(C(O)c3ccccc3)NC(=O)CNC(=O)c3nc(sc3COC)C(C(C)C)NC(=O)c3nc(sc3C)C(CC(=O)NC)NC(=O)c3csc-4n3)n2)=N1 (mixture of isomers) [Compound 1] | 0.25 | 2 | 0.5 | 2 | 0.06 | 128 | – | – | – | –
2 | CNC(=O)CC1NC(=O)c2csc(n2)-c2ccc(-c3nc(C4=NC(C(=O)NCCN5CCCC5)CO4)cs3)nc2-c2csc(n2)-c2csc(n2)C(C(O)c2ccccc2)NC(=O)CNC(=O)c2nc(sc2COC)C(C(C)C)NC(=O)c2nc1sc2C (mixture of isomers) [Compound 2] | 0.25 | 4 | 0.5 | 1 | 0.06 | 128 | – | – | – | –
3 | CCN(CC)CCNC(=O)C1COC(c2csc(-c3ccc4c(n3)-c3csc(n3)-c3csc(n3)C(C(O)c3ccccc3)NC(=O)CNC(=O)c3nc(sc3COC)C(C(C)C)NC(=O)c3nc(sc3C)C(CC(=O)NC)NC(=O)c3csc-4n3)n2)=N1 (mixture of isomers) [Compound 3] | 0.5 | 4 | 0.5 | 2 | 0.06 | 128 | – | – | – | –
4 | CNC(=O)CC1NC(=O)c2csc(n2)-c2ccc(-c3nc(C4=NC(C(=O)N(C)CCN(C)C)CO4)cs3)nc2-c2csc(n2)-c2csc(n2)C(C(O)c2ccccc2)NC(=O)CNC(=O)c2nc(sc2COC)C(C(C)C)NC(=O)c2nc1sc2C (mixture of isomers) [Compound 4] | 0.13 | 0.5 | 0.13 | 0.5 | 0.06 | 4 | 0.016 | 8 | 0.06 | 0.06
5 | CNC(=O)CC1NC(=O)c2csc(n2)-c2ccc(-c3nc(C4=NC(C(=O)NCCCN(C)C)CO4)cs3)nc2-c2csc(n2)-c2csc(n2)C(C(O)c2ccccc2)NC(=O)CNC(=O)c2nc(sc2COC)C(C(C)C)NC(=O)c2nc1sc2C (mixture of isomers) [Compound 5] | 0.25 | 2 | 0.25 | 1 | 0.06 | – | – | 32 | – | –
6 | CNC(=O)CC1NC(=O)c2csc(n2)-c2ccc(-c3nc(C4=NC(C(=O)N5CCN(C)CC5)CO4)cs3)nc2-c2csc(n2)-c2csc(n2)C(C(O)c2ccccc2)NC(=O)CNC(=O)c2nc(sc2COC)C(C(C)C)NC(=O)c2nc1sc2C (mixture of isomers) [Compound 6] | 0.25 | 4 | 0.25 | 4 | 0.06 | – | – | 128 | – | –
7 | CNC(=O)CC1NC(=O)c2csc(n2)-c2ccc(-c3nc(C4=NC(C(=O)NCCN(C)C)CO4)cs3)nc2-c2csc(n2)-c2csc(n2)C(C(O)c2ccccc2)NC(=O)CNC(=O)c2nc(sc2COC)C(C(C)C)NC(=O)c2nc1sc2C (mixture of isomers) [Compound 7] | 1 | 8 | 1 | 4 | 0.13 | – | – | – | – | –

More lines, main results first:

Row | MIC of the compounds (Strept. pneumoniae L44) [µg/mL] | MIC of the compounds (Strept. agalactiae L310) [µg/mL] | MIC of the compounds (Strept. sanguis L1721) [µg/mL] | MIC of the compounds [1] [µg/mL] | MIC of the compounds [2] [µg/mL] | Compound | MIC of the compounds [3] [µg/mL] | MIC of the compounds [4] [µg/mL] | MIC of the compounds [5] [µg/mL] | MIC of the compounds (Staph. haemolyticus L602) [µg/mL] | MIC of the compounds [6] [µg/mL]
8 | 0.5 | 4 | 1 | 8 | 0.06 | CCN(CCN(C)C)C(=O)C1COC(c2csc(-c3ccc4c(n3)-c3csc(n3)-c3csc(n3)C(C(O)c3ccccc3)NC(=O)CNC(=O)c3nc(sc3COC)C(C(C)C)NC(=O)c3nc(sc3C)C(CC(=O)NC)NC(=O)c3csc-4n3)n2)=N1 (mixture of isomers) [Compound 8] | – | – | – | – | –
9 | 0.5 | 32 | 1 | 2 | 0.06 | CCN(CC)CCN(CC)C(=O)C1COC(c2csc(-c3ccc4c(n3)-c3csc(n3)-c3csc(n3)C(C(O)c3ccccc3)NC(=O)CNC(=O)c3nc(sc3COC)C(C(C)C)NC(=O)c3nc(sc3C)C(CC(=O)NC)NC(=O)c3csc-4n3)n2)=N1 (mixture of isomers) [Compound 9] | – | – | – | – | –
10 | 0.25 | 4 | 0.5 | 2 | 0.06 | CNC(=O)CC1NC(=O)c2csc(n2)-c2ccc(-c3nc(C4=NC(C(=O)N5CCC(N(C)C)CC5)CO4)cs3)nc2-c2csc(n2)-c2csc(n2)C(C(O)c2ccccc2)NC(=O)CNC(=O)c2nc(sc2COC)C(C(C)C)NC(=O)c2nc1sc2C (mixture of isomers) [Compound 10] | – | – | – | – | –
11 | 2 | > 128 | 4 | 8 | 0.13 | CNC(=O)CC1NC(=O)c2csc(n2)-c2ccc(-c3nc(C4=NC(C(=O)NCCN(C(C)C)C(C)C)CO4)cs3)nc2-c2csc(n2)-c2csc(n2)C(C(O)c2ccccc2)NC(=O)CNC(=O)c2nc(sc2COC)C(C(C)C)NC(=O)c2nc1sc2C (mixture of isomers) [Compound 11] | – | – | – | – | –
12 | 0.5 | 4 | 0.5 | 2 | 0.06 | CNC(=O)CC1NC(=O)c2csc(n2)-c2ccc(-c3nc(C4=NC(C(=O)N5CC(C)NC(C)C5)CO4)cs3)nc2-c2csc(n2)-c2csc(n2)C(C(O)c2ccccc2)NC(=O)CNC(=O)c2nc(sc2COC)C(C(C)C)NC(=O)c2nc1sc2C (mixture of isomers) [Compound 12] | – | – | – | – | –
13 | 0.25 | 4 | 0.25 | 2 | 0.06 | CNC(=O)CC1NC(=O)c2csc(n2)-c2ccc(-c3nc(C4=NC(C(=O)N(C)CC(=O)N(C)CCN(C)C)CO4)cs3)nc2-c2csc(n2)-c2csc(n2)C(C(O)c2ccccc2)NC(=O)CNC(=O)c2nc(sc2COC)C(C(C)C)NC(=O)c2nc1sc2C (mixture of isomers) [Compound 14] | – | – | – | – | –
14 | 0.25 | 4 | 0.5 | 4 | 0.06 | CNC(=O)CC1NC(=O)c2csc(n2)-c2ccc(-c3nc(C4=NC(C(=O)NC(C)C(=O)N(C)CCN(C)C)CO4)cs3)nc2-c2csc(n2)-c2csc(n2)C(C(O)c2ccccc2)NC(=O)CNC(=O)c2nc(sc2COC)C(C(C)C)NC(=O)c2nc1sc2C (mixture of isomers) [Compound 15] | – | – | – | – | –
15 | 0.25 | 8 | 0.25 | 2 | 0.06 | CNC(=O)CC1NC(=O)c2csc(n2)-c2ccc(-c3nc(C4=NC(C(=O)N(C)CCN(C)CCN(C)C)CO4)cs3)nc2-c2csc(n2)-c2csc(n2)C(C(O)c2ccccc2)NC(=O)CNC(=O)c2nc(sc2COC)C(C(C)C)NC(=O)c2nc1sc2C (mixture of isomers) [Compound 16] | – | – | – | – | –
16 | 0.5 | 8 | 0.5 | 2 | 0.06 | CNC(=O)CC1NC(=O)c2csc(n2)-c2ccc(-c3nc(C4=NC(C(=O)N5CCN(CCCN(C)C)CC5)CO4)cs3)nc2-c2csc(n2)-c2csc(n2)C(C(O)c2ccccc2)NC(=O)CNC(=O)c2nc(sc2COC)C(C(C)C)NC(=O)c2nc1sc2C (mixture of isomers) [Compound 17] | – | – | – | – | –
17 | 0.25 | 4 | 0.25 | 1 | 0.06 | CNC(=O)CC1NC(=O)c2csc(n2)-c2ccc(-c3nc(C4=NC(C(=O)N5CCCC5CN(C)CCN(C)C)CO4)cs3)nc2-c2csc(n2)-c2csc(n2)C(C(O)c2ccccc2)NC(=O)CNC(=O)c2nc(sc2COC)C(C(C)C)NC(=O)c2nc1sc2C (mixture of isomers) [Compound 21] | – | – | – | – | –
